Measured values reported in US12139735B2, “Cell culture process” (Momenta Pharmaceuticals, Inc., priority 2011, dated 2024).

What was measured:
CL320 CHO cells = test: Growth (VCD), viability and antibody titer of the culture with supplemented feed; format: cell-based; settings: addition of 10 mg/L (so in the source)
Procedure: The carboxyl-terminal lysine residues of a model antibody produced by CHO cells were analyzed. […] […] On Day 5, 10 g/L cottonseed hydrolysate was added. VCD and viability were assessed, and cells were harvested on Day 10. The antibodies produced under the various conditions were evaluated for titer and C-terminal lysine by ion exchange chromatography.

[1] = test system: K1 and K2 lysine residues; test: Additional culture data: levels of K1/K2 lysine residues of the antibody produced; format: cell-based; settings: included in culture media, compared to controls

Row | SMILES | effect on growth (CL320 CHO cells) | effect on titers (CL320 CHO cells) | effect on viability (CL320 CHO cells) | levels of K1 and K2 lysine residues [1]
1 | NCCCC[C@H](N)C(=O)O [L-Lys, L-lysine] | did not affect | did not affect | did not affect | –
2 | Cl.N [NH4Cl, ammonium chloride] | – | – | – | increased
3 | N=C(N)NCCC[C@H](N)C(=O)O [L-Arg, L-arginine] | did not affect | did not affect | did not affect | –
